For this data set, the system named is IFN β-production. The conditions noted are these: soluble, unformulated form.

The values below come from patent US12552788B2 (priority 2020, dated 2026).

Description: (FIG. 3A) Bioluminescence images of luciferase reporter mice (IFβ+/Δβ-luc); images taken 4, 24 and 48 h post footpad injection of IMDQ-PEG-CHOL, IMDQ-PEG and native IMDQ.
In vivo immune activation imaging. Luciferase reporter mice (IFNβ+/Δβ-luc) with a BALB/c background, aged 7-9 weeks, were housed in individual ventilated cages and given ad libitum access to food and water. 20 mL of IMDQ-PEG-CHOL, IMDQ-PEG or IMDQ were injected subcutaneously in the footpad (n=3) at an equivalent INDQ dose of 2 mg. For in vivo imaging at the given time points, mice were injected subcutaneously with 200 μL D-luciferin and in vivo luminescence imaging was recorded 12 min later using the IVIS Lumina II imaging system. Local (DLN and DLN+foot pad) luminescence and full-body luminescence were quantified using the Living Image 4.4 software.

Regarding `CCCCc1nc2c(N)nc3ccccc3c2n1Cc1ccc(CN)cc1` [IMDQ, 1-(4-(aminomethyl)benzyl)-2-butyl-1H-imidazo[4,5-c]quinolin-4-amine], the “entry into systemic circulation upon local administration” value is listed as “rapidly enters systemic circulation”.
